melting point [°C]	SMILES
104 to 105	NCCNc1cc(-n2cccn2)nc(-c2ccco2)n1
94 to 95	CCS(=O)(=O)Nc1ccc([N+](=O)[O-])cc1OC1CCCCC1
94 to 130	CC(=O)OCCCOc1ccc([N+](=O)[O-])c(C=C2NC(=O)NC2=O)c1
100 to 102	N#Cc1ccc2c(c1)c(-c1ccccc1)nn2CCCBr
110	CSc1nc2cc(Cl)c(Cl)cc2n1C
204 to 206	COCCc1nc2c(N)nc3ccccc3c2n1CC(C)(C)CNS(C)(=O)=O
118 to 119	O=C1OC[C@H](c2ccccc2)N1C(=O)C1C=C1
285 to 287	COc1cc(C=C2NC(=O)NC2=O)cc(OC)c1
159 to 160	CN1OC(CNc2ccccc2)CC1(Cn1ccnc1)c1ccc(Cl)cc1 (configuration not stated)
183 to 184	Cc1ccc(NC(=O)Nc2ccc(Oc3cc(Cl)ncn3)cc2)cc1C(F)(F)F
143 to 144	Cc1cc(-c2[nH]c3ccccc3c2C)cc(C)c1O
160 to 170	CCOC(=O)c1[nH]cc2c1NC1=C(C(=O)CCC1)C2c1ccc(Sc2nc3cc(F)c(F)cc3[nH]2)o1 (configuration not stated)
215 to 218	CCc1cccc(CC)c1NC(=O)NC1(c2ccccc2)CCCC1
160 to 163	O=C(c1cccc(C(F)(F)F)c1F)N1CCN(Cc2cncc(Nc3cc[nH]n3)n2)CC1
126 to 127	COc1ccc(Nc2cnc3c(NCc4ccccc4)nc(NCCO)nc3c2)cc1
170	CCN(CC)C(=O)c1cc2c(cn1)[nH]c1ccccc12
176 to 178	CS(=O)(=O)c1ccc(-n2nc(C(F)(F)F)cc2-c2ccc(-c3cscn3)c(F)c2)cc1
216 to 218	CCCc1c(O)cc(O)c(C(=O)CCc2ccc(O)cc2)c1O
221 to 222	N#Cc1cnc2c(c1)N(Cc1cc(Cl)ccc1Cl)CCN2
87 to 88	COC(=O)c1cccc(OCc2ccc(Cl)c(Cl)c2)c1
69 to 72	CCOC(=O)c1cc2cccc(OC)c2[nH]1
111 to 113	CC(C)(C)OC(=O)N1CCC(c2noc3c(C(F)(F)F)cccc23)CC1
212 to 214	CCn1cc(C(=O)O)c(=O)c2c1CCCC2=O
117 to 119	N#COc1ccc(OC#N)cc1

melting point [°C]	SMILES
66 to 67	CNC(=O)/C(=N/OC)c1ccccc1COc1ccc(C(F)(F)F)c(NC)n1
140 to 141	O=Cc1cc(N2C(=O)C3=C(CCCC3)C2=O)ccc1Cl
132	c1ccc(-c2nc(CCCCCCc3nnn[nH]3)oc2-c2ccccc2)cc1
272	NS(=O)(=O)c1cccc(NC(=O)c2cnn3c(C(F)F)cc(-c4ccc(C(F)(F)F)c(Cl)c4)nc23)c1
152 to 153	N#CC(Cc1c[nH]cn1)(c1ccc(Cl)cc1)c1ccc(Cl)cc1
126 to 128	CC(C)(C)COc1c(-c2ccc(S(C)(=O)=O)cc2)cnn(-c2ccc(F)c(F)c2)c1=O
80 to 81.5	COC(=O)CCC(=O)c1ccccc1OCC(O)CNC(C)(C)C (configuration not stated)
154 to 155	COC(=O)C[C@H](O)C[C@H](O)C=Cc1c(-c2ccc(F)cc2)c(-c2ccccc2)c(C(=O)Nc2ccccc2)n1C(C)C
221 to 224	COc1nc(C)nc(NC(=O)NS(=O)(=O)c2ccccc2-c2cnn(C)c2)n1
274 to 276	O=c1c2c(Cc3ccccc3[N+](=O)[O-])n[nH]c2c2cccnc2n1-c1cccc(OC(F)(F)F)c1
69 to 70	CS(=O)(=O)Oc1ccc(N)c(OCCBr)c1
55 to 57	CCN(CC)CCCNC(=O)Cn1cc(-c2ccccc2)cn1
146 to 149	COc1cc2c(cc1O)/C(=N/OCc1ccc([N+](=O)[O-])cc1)CC2
198 to 199	CC(CN1C(=O)c2ccccc2C1=O)C(=NO)n1nc(C(C)(C)C)cc1N (configuration not stated)
166 to 170	Cc1[nH]c([N+](=O)[O-])c(C)c1-c1ccnc(Nc2ccc(F)cc2)n1
286 to 288	CN(c1c(Cl)ccc2cc(C(=O)O)[nH]c12)S(=O)(=O)c1cccs1
240 to 242	Cc1ccc2sc(S(=O)(=O)c3cn[nH]c(=O)c3)cc2c1
182 to 183	CC1(C)CCOc2c(CC#Cc3ccc(C(=O)O)c(O)c3)cccc21
176 to 177	O=C(O)c1ccccc1C(=O)c1ccc(Cl)c(S(=O)(=O)Cl)c1
191 to 193	COc1ccc(-c2cc3cc(F)c(F)cc3[nH]2)cc1NC(=S)NCCO
205 to 207	O=c1cc(N2CCCCC2)oc2c1ccc1ccccc12
80 to 82	CC1C=C(Nc2ccc(OC(F)(F)F)cc2)N(C)N1 (configuration not stated)
150 to 155	O=C1CN(CCN2CC(=O)N(CN3CCCC3)C(=O)C2)CC(=O)N1CN1CCCC1
105 to 107	COc1ccc(C(C)C)c(NC(=O)CN2CCN(CCCSc3nc4ccccc4o3)CC2)c1C(C)C

melting point [°C]	SMILES
118 to 121	CCN(CC)CCNC(=O)N1CCCC(S(=O)(=O)c2ccc(OC)cc2)C1 (configuration not stated)
202 to 204	O=S(=O)(NC1CCCCC1)c1ccc(Nc2nccc(Cl)n2)cc1
112	CCC(=O)c1cnc(C(=O)CC)cn1
79 to 81	CC1(C)C(c2ccc(S(C)(=O)=O)cc2)=C(c2ccccc2)C1O (configuration not stated)
162 to 164	N#CNC(=NCC(O)c1cccc(O)c1)NCCSCc1csc(NC(=N)N)n1 (configuration not stated)
156 to 157	Cc1c(C)c2c(c(C)c1NC(=O)CCCO)C(c1ccc(C(C)C)cc1)CO2 (configuration not stated)
146 to 147	Cc1oc(-c2ccccc2)nc1CCOc1ccc(C[C@@H](C(=O)O)n2ccc(-c3ccccc3)c2)cc1
104	CCCCn1c(-c2ccc(Cl)c(S(=O)(=O)N(C)C)c2)csc1=Nc1ccccc1C
155 to 157	O=C1CN2C(=O)CCC2N1 (configuration not stated)
266 to 268	O=C(CN1CCC(Cc2ccc(F)cc2)CC1)Nc1ccc2[nH]c(=S)[nH]c2c1
124 to 125	c1ccc(COc2ccc3c(ccn3Cc3ccncc3)c2)cc1
76 to 78	Cc1cccc(C(=O)Cc2ccnc(-c3ccc(OC(F)(F)F)cc3)c2)n1
190 to 192	O=C(O)c1ccc(OCCCCCCc2ccc3cc(O)c(O)cc3c2)cc1O
253	O=C1CCCc2ccc(=O)[nH]c21
155 to 157	CCOC(=O)C1C(=O)CC(C)(O)C(C(=O)OCC)C1c1cccc2oc3c(c12)CCCC3 (configuration not stated)
150 to 152	O=Cc1c(Cl)nc(-c2ccccc2)n1Cc1ccc([N+](=O)[O-])cc1
98 to 99	Cc1oc(-c2ccc(Cl)cc2)nc1COc1cccc(/C=C/C(C)N(O)C(N)=O)c1 (configuration not stated)
126 to 127	CC(C)(C)OC(=O)C1(N)C=CC(C(=O)O)C1 (configuration not stated)
145 to 146	CC(O)(CNc1ccc(S(=O)(=O)c2ccccc2)cc1)C(F)(F)F (configuration not stated)
279 to 280	COc1ccc(-c2nc3nccnc3[nH]2)c(N(C)C)c1
120 to 123	Cc1cccc(C#Cc2cccc(C#N)c2)n1
249 to 255	CC(C)NC(=O)c1c[nH]c2ncc(-c3nn(CCCN(C)C)c4cc(Cl)cc(F)c34)nc12
107 to 110	CCOC(C#N)NC(=O)c1ccccc1 (configuration not stated)
124 to 128	CN1CCN(c2ccc(-c3cnc4c(c3)C(O)CCN4)cn2)CC1 (configuration not stated)

melting point [°C]	SMILES
150	COC(=O)[C@@H](Cc1ccccc1)Nc1cc(-c2ccc(OCc3ccccc3)cc2)ncn1
272 to 274	COc1ccc2nc3c(C(=O)O)cccn3c(=O)c2c1
110 to 112	Nc1cn2cc(Sc3ccccc3)ccc2n1
186 to 188	CN(C(=O)Nc1ccc(Cl)cc1)n1cnc2ccccc2c1=O
262	NS(=O)(=O)c1cccc(NC(=O)c2cnn3c(C(F)F)cc(-c4ccc(C(F)(F)F)c(F)c4)nc23)c1
216 to 219	CCn1cc(C(=O)O)c(=O)c2cnc(N3CCN(Cc4ccc(NC(C)=O)cc4)CC3)nc21
140 to 143	CCN(CC)c1ccc(C2(c3c(C)n(CCOC)c4ccccc34)OC(=O)c3ccccc32)c(C)c1 (configuration not stated)
115 to 116	O=S1C(Cl)=C(Cl)CN1C1CCCCC1 (configuration not stated)
138 to 140	CCC1(CC)OC(=O)Nc2ccc(/C(=C/C#N)C(C)C)cc21
86 to 88	CCCCc1nn(CC#N)c(=O)n1Cc1ccc(-c2ccccc2-c2nnn[nH]2)cc1
257	Cc1ccc(S(=O)(=O)CC(=O)NN=C2C(=O)Nc3ccc(I)cc32)cc1
208 to 211	O=C(Nc1n[nH]c(=S)s1)NC(Cc1ccccc1)C(=O)NCc1ccncc1 (configuration not stated)
112 to 113	COC(=O)c1c(-c2ccccc2)nn2c1-c1ccccc1CC2
162 to 163	COc1cc(Cc2cnc(NC(=O)C(C)(C)C)nc2NC(=O)C(C)(C)C)c(C=O)c(OC)c1OC
122 to 124	COc1cc2ccc3c4cc(OC)c(OC)cc4ncc3c2cc1OC
132 to 134	O=C(O)[C@H]1C[C@@H](O)CN1C(=O)Nc1ccc(Cl)cc1
132 to 133	CCCc1ncc(C(=O)OCC)c(NCc2ccc(-c3ccccc3-c3nnnn3C(c3ccccc3)(c3ccccc3)c3ccccc3)cc2)n1
102 to 103	CC(=O)N1CCN(c2cccc(F)n2)CC1
228 to 229	COc1cc(C)nc2ccc(NC(=O)C=Cc3ccccc3Cl)cc12
44 to 45	CC1(C)C2CCC3(C2)C1c1ncncc1CC3(C)C (configuration not stated)
152 to 154	O=Cc1c[nH]cc1-c1cccc(Cl)c1Cl
172 to 178	NC(CSSCCCN1C(=O)NCC1c1ccccc1)C(=O)O (configuration not stated)
175 to 179	CC(=O)OCC1OC(n2cc(I)c(=O)[nH]c2=O)C(OC(C)=O)C1OC(C)=O (configuration not stated)
59 to 60	CCOC(=O)c1cnc2n(c1=O)CCC2

SMILES	melting point [°C]
CC1C(=O)N(C)C(=O)N(C)C1=O	83 to 85
COc1cc2c(cc1OC)N(C)C(=O)CN=C2c1ccc(Cl)c(Cl)c1	174 to 177
CO/C=C(/C(=O)OC)c1ccccc1CSc1nc2ccccc2s1	77 to 78
OC(c1ccc(Cl)cc1)(c1ccc(Cl)cc1)C1CCNCC1	184 to 188
CCOC(=O)CN(CP(=O)(ONN(C)C)ONN(C)C)C(=O)C(F)(F)F	84.5 to 87.5
Cc1ccc2c(c1)CCN1C2CC(=O)C2CCCCC21 (configuration not stated)	101 to 121

Source: a melting point compilation (Tetko et al.; mined from patent text by program, amines drawn as free bases though some values may be those of a salt)
